Test results reported in paper PMC6337594 (2018).

Assays:
[1] = system: CMA (DNA, G4) TAGGGAGGGTAGGGAGGGT; assay: gel mobility shift; details: 100 mM K+; 40 µM CMA, 80 µM compound
[2] = system: Tel48 (DNA, G4) TTAGGGTTAGGGTTAGGGTTAGGGTTAGGGTTAGGGTTAGGGTTAGGG; assay: CD, ligand-induced G4 formation; details: no K+; Tris buffer, 25 °C; 4 µM Tel48, 8 µM compound
[3] = system: biotinylated Tel48 (DNA, G4) TTAGGGTTAGGGTTAGGGTTAGGGTTAGGGTTAGGGTTAGGGTTAGGG; assay: bio-layer interferometry, kinetic; details: 100 mM K+; 10 mM Tris, 25 °C; two-site model, Kb = ka/kd; immobilised Tel48
[4] = system: Tel48 (DNA, G4) TTAGGGTTAGGGTTAGGGTTAGGGTTAGGGTTAGGGTTAGGGTTAGGG; assay: CD melting; details: 100 mM K+; 10 mM Tris-HCl pH 7.5; compound concentration not stated
[5] = system: LD12 (DNA, duplex) GCGCAATTGCGC; assay: fluorescence enhancement; pre-stained gel; details: 100 mM K+; 15 µM H33258, 15 µM LD12

| Structure (SMILES) | binding [1] | binding [2] | Kb [3] [M⁻¹] | dTm [4] | binding [5] |
| --- | --- | --- | --- | --- | --- |
| C[n+]1ccc(-c2c3nc(c(-c4cc[n+](C)cc4)c4ccc([nH]4)c(-c4cc[n+](C)cc4)c4nc(c(-c5cc[n+](C)cc5)c5ccc2[nH]5)C=C4)C=C3)cc1 | yes | yes | 1.55e+07 | ~ 10 °C | – |
| C[n+]1ccccc1/C=C/c1ccc2[nH]c3ccc(/C=C/c4cccc[n+]4C)cc3c2c1 | yes | yes | 2.38e+06 | – | – |
| C[n+]1ccnc(/C=C/c2ccc3[nH]c4ccc(/C=C/c5c[n+](C)ccn5)cc4c3c2)c1 | yes | – | 529000 | – | – |

Further lines, with some results ahead:

| binding [1] | binding [2] | Kb [3] [M⁻¹] | dTm [4] | Structure (SMILES) | binding [5] |
| --- | --- | --- | --- | --- | --- |
| yes | yes | 9.84e+06 | – | CN(C)c1ccc(Nc2c3ccc(NC(=O)CCN4CCCC4)cc3nc3cc(NC(=O)CCN4CCCC4)ccc23)cc1 | – |
| – | – | – | ~ 4 °C | CN1CCN(c2ccc3nc(-c4ccc5nc(-c6ccc(O)cc6)[nH]c5c4)[nH]c3c2)CC1 | yes |
| – | yes | – | ~ 2 °C | NCCOc1cc(C(=O)Nc2cc(OCCN)c3ccccc3n2)nc(C(=O)Nc2cc(OCCN)c3ccccc3n2)c1 | – |
